According to publication PMC4822341 (Cell Discovery, 2015):
Where “and” joins values, the source holds several entries; their conditions need not be identical. Equal values may be shown once.

Key:
[1] = Spleen size and weight (spleen atrophy); assay type: in vivo, DBA/1 mice; details: 2 weeks
Description: Figure 5 Examination of side effects of VSGC12 and FF at the effective dose. (a) Body weight of DBA/1 mice treated with the indicated daily dose of steroids for 2 weeks. Mice body weight was measured at day 0, 7 and 14. (b) Insulin-tolerance test of mice treated with the indicated daily doses of steroids for 7 days. Glucose level was measured at day 7 at various time points before and after insulin injection. Data were plotted as percent of the glucose level of time 0. (c) Plasma insulin levels of mice treated with the indicated daily doses of steroid for 7 days. (d) Spleen size and weight for mice treated with the indicated daily doses of steroid for 2 weeks. (e) Cortical bone thickness of femurs of mice treated with the indicated daily doses of steroid for 2 weeks. (f) Bone stiffness of femurs of mice treated with the indicated daily doses of steroid for 2 weeks. Mouse strain: DBA/1. Each treatment n=5, error bars indicate s.e.m., *P<0.05; **P<0.01; ***P<0.001.

[2] = Insulin-tolerance test and plasma insulin level; details: 7 days
Description: DBA/1 mice (Taconic) were weighted just before the experiment. After 4 h fasting, mice were i.p. injected with 0.75 U kg^–1 of insulin (Huamlin R). Blood samples were taken from the tail at time 0 (before insulin injection), 15, 30, 45, 60, 90 and 120 min after injection. Plasma glucose levels were measured using an AlphaTrak glucose meter. All data were plotted as percent of glucose level at time 0. Endogenous insulin levels were measured using the Ultra Sensitive Mouse Insulin ELISA kit (Crystal Chem, Downers Groove, IL, USA).

[3] = target: T1, MR (Homo sapiens, UniProt P08235); experiment: MR reporter assay (off-target activity); assay type: cell-based; details: steroid 1 μM; percent of 1 μM corticosterone
T1 construct: expressed in transfected cells; host or cells: AD293
T1 sequence (P08235 1-984): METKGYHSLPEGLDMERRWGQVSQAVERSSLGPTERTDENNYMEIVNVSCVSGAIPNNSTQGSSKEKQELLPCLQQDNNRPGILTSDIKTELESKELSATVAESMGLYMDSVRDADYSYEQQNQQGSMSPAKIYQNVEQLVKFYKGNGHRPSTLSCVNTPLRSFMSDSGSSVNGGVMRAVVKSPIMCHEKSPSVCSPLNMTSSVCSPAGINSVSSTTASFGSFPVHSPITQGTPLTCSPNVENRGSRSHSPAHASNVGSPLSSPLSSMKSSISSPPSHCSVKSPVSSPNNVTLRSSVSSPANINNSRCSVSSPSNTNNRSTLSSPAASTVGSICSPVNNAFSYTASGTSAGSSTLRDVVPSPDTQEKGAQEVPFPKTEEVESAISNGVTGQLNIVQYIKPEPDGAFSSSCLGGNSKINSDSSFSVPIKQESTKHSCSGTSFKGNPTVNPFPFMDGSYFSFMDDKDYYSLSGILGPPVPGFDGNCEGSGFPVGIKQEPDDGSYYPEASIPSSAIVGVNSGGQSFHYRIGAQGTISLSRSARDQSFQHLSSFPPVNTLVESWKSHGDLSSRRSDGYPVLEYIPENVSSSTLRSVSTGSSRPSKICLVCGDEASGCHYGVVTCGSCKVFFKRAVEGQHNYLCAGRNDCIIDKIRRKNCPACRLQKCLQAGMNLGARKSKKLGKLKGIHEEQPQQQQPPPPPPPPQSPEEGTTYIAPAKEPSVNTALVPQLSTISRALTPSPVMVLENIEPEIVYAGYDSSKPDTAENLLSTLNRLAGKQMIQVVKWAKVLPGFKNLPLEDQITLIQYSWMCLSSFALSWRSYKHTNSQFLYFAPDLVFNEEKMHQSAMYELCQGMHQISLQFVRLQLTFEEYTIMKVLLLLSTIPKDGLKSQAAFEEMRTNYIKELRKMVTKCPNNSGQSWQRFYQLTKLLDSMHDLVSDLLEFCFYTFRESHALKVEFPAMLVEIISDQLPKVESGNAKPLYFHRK
Description: Similar to previous reports, for induction 100 ng pHHLuc (MMTV-Luc) plasmid, 0.1 ng pRShGR together with 5 ng phRGtkRenilla were transfected by X-tremeGENE 9 (Roche) into AD293 cells per well in 24-well plate. For transrepression, 10 ng AP-1-Luc or 10ng pNF-κB-luc, 100 ng pRShGR and 5 ng phRGtkRenilla were transfected into AD293 cells per well. We used the same transfection protocol for the MR and PR assays, except of the use of 0.1 ng MR or PR plasmid to substitute GR. One day after transfection, for induction, cells were directly treated by steroids for 16 h; for repression, cells were treated with either PMA at 0.6 ng ml^–1 (for AP-1 reporter) or TNFα at 2 ng ml^–1 (for NF-κB reporter), together with various steroids. Cells were collected by addition of 1× Passive Lysis Buffer (Promega, Madison, WI, USA), and luciferase activity was assayed by the Dual-Glo Luciferase system (Promega). Data were plotted as firefly luciferase activity normalized to Renilla luciferase activity in Relative Luciferase Units.

[4] = tested on: OVA-induced asthma; experiment: OVA-induced mouse asthma model; assay type: in vivo, Balb/c mice; details: for % repression of AHR: ACH challenge 4 mg kg^-1
Description: As described before, 7–9-week-old female Balb/c mice (Taconic) were sensitized on days 0, 7 and 14 by i.p. injection of 50 μg OVA/1 mg alum in a total of 200 μl saline. Control mice received an equal volume of alum only. Mice were lightly anesthetized by isoflurane inhalation and challenged with intranasal OVA (100 μg in 30 μl saline) or saline on days 21–23, and were i.p. injected with different steroids. Twenty-four hours after the last challenge and treatment, pulmonary resistance was measured in response to a range of concentrations of intravenous acetylcholine using the forced oscillation technique with the FlexiVent system (SCIREQ) as previously described. Serum samples were analyzed for OVA-specific IgE using an ELISA (BD Biosciences, clone R35-118). Total and differential cell counts were determined by hemocytometer and by light microscopic evaluation of more than 300 cells per slide as previously described. After lavage, lungs were inflated with 10% buffered formalin to 25 cm H2O and transferred to 10% buffered formalin. Sections (5 μm) were stained with H&E for semi-quantitative assessment of inflammation and PAS for evaluation of mucus production. To quantify inflammation, H&E-stained lung sections were de-identified for blinding and scored for peribronchial and perivascular inflammatory cell infiltration: grade 0, no infiltration; grade 1, <25% of examined area; grade 2, 25–50%; grade 3, 51–75%; and grade 4, >75%. To quantify goblet cell hyperplasia, PAS stained lung sections were de-identified for blinding and scored for the percentage of PAS positive cells among airway epithelial cells: grade 0: none; grade 1 <25% of airway epithelial cells; grade 2, 25–50%; grade 3, 51–75%; and grade 4, >75%.

SMILES: CON(C)C(=O)C1(OC(=O)c2ccco2)C(C)CC2C3CC(F)C4=Cc5c(cnn5-c5ccccc5)CC4(C)C3(F)C(O)CC21C (stereo not shown) [VSGC12]
- atrophy of the spleen ([1]; 0.0625 mg kg^-1 daily): only a mild change in spleen size
- atrophy of the spleen ([1]; 0.25 mg kg^-1 daily): less severe atrophy
- insulin resistance in insulin-tolerance test ([2]; 0.0625 mg kg^-1 daily): no longer induced insulin resistance
- insulin resistance in insulin-tolerance test ([2]; 0.25 mg kg^-1 daily): still caused insulin resistance, the resistance was much less severe than for FF
- MR activity [3]: higher MR activity than VSG22 and FP, but a lower activity than MF and a similar activity (difference not statistically significant) as FF
- % repression of total differentiated cells ([4]; 0.0625 mg/kg): 37%
- % repression of AHR ([4]; 0.0625 mg/kg): 50%
- % repression of total differentiated cells ([4]; 0.125 mg/kg): 60%
- histology score (hematoxylin and eosin and PAS staining) ([4]; 0.25 mg kg^-1): much lower score than 0.25 mg kg^–1 FF in both hematoxylin and eosin and PAS staining
- % repression of total differentiated cells ([4]; 0.25 mg/kg): 88%
- % repression of AHR ([4]; 0.25 mg/kg): > 95% and 95%
- infiltration of immune responsive cells into the lungs (total and differential cell count) ([4]; 1 mg kg^-1 i.p.): strongly repressed the infiltration of immune responsive cells into the lungs
- repression of airway hyper-responsiveness (AHR) ([4]; 1 mg kg^-1 i.p., Balb/c mice): robustly repressed AHR to the basal level
- histology score, PAS staining ([4]; 1 mg kg^-1 i.p., grade 0-4): 0.25
- histology score, hematoxylin and eosin staining ([4]; 1 mg kg^-1 i.p., grade 0-4): almost zero
- % repression of AHR ([4]; 1 mg/kg, OVA+DMSO 0, saline 100): 98%
- % repression of total differentiated cells ([4]; 1 mg/kg, saline 100, OVA+DMSO 0): 99%
- minimal dose to effectively repress AHR (minimal effective dose) ([4]; AHR repression >50%, i.p.): 0.0625 mg kg^–1
- OVA-IgE levels ([4]; lower doses (0.25, 0.125, 0.0625 mg kg^-1)): unexpectedly higher than the vehicle control
